Data reported in PMC5285354, “Cationic Net Charge and Counter Ion Type as Antimicrobial Activity Determinant Factors of Short Lipopeptides” (Frontiers in Microbiology, 2017).
Where two headings read alike, the source gives them in different places. Where a SMILES comes first, the peptide text is derived from it. The star is where a group is joined. Decanoyl = CCCCCCCCCC(=O)*

Key:
Assay type in all cases: cell-based
[1] = system: Pseudomonas aeruginosa (ATCC 9027); conditions: ATCC 9027, 24 h
[2] = system: Proteus vulgaris (PCM 2668); conditions: PCM 2668, TFA salt, triplicate; for MIC Proteus vulgaris: Mueller-Hinton broth, 10^5 cfu/mL, 18 h 37°C; for MBC Proteus vulgaris: subculture on Mueller-Hinton II Agar, 24 h 37°C
Description: (§1) The minimum inhibitory concentration (MIC), minimum bactericidal concentration (MBC) and minimum fungicidal concentration (MFC) were determined according to the procedure recommended by the Clinical Laboratory Standards Institute (CLSI). The following reference strains were tested: Gram-negative E. coli (ATCC 25922), K. pneumoniae (ATCC 700603), P. vulgaris (PCM 2668), P. aeruginosa (ATCC 9027), Gram-positive S. aureus (ATCC 25923), S. epidermidis (PCM 2118), B. subtilis (ATCC 6633), E. faecalis (ATCC 29212) and fungi C. albicans (ATCC 10231), C. tropicalis (PCM 2681), and A. brasiliensis (ATCC 16404). All the microorganisms were from the Polish Collection of Microorganisms (Wroclaw, Poland). MIC was determined using a microbroth dilution method with Mueller-Hinton (MH) broth for bacteria and Sabouraud Dextrose broth for fungi (Becton Dickinson, Le Pont de Claix, France). An initial inoculum of 10^5 cfu/mL was used for bacteria and 10^3 cfu/mL for fungi. Polypropylene 96-well plates (Kartell, Noviglio, Italy) were incubated for 18 h at 37°C for bacteria and for 48 h at 25°C for the tested fungi. MIC (μg/mL) was taken as the lowest concentration of the lipopeptide, at which the observable growth was inhibited. […] The experiments were performed in triplicate on three different days.

[3] = system: Escherichia coli (ATCC 25922)
Description: as §1

[4] = system: Candida albicans (ATCC 10231); conditions: ATCC 10231, 48 h
Description: as §1

[5] = system: Staphylococcus aureus (ATCC 25923); conditions: for MBC Staphylococcus aureus: MIC wells subcultured on Mueller-Hinton II Agar, 24 h 37°C, triplicate
Description: as §1

[6] = system: Pseudomonas aeruginosa (ATCC 9027); conditions: for MBC Pseudomonas aeruginosa: subculture on Mueller-Hinton II Agar, 24 h 37°C
Description: as §1

[7] = system: Candida tropicalis (PCM 2681); conditions: PCM 2681, 48 h
Description: as §1

[8] = system: Staphylococcus epidermidis (PCM 2118)
Description: as §1

[9] = system: Enterococcus faecalis (ATCC 29212); conditions: for MBC Enterococcus fecalis: subculture on Mueller-Hinton II Agar, 24 h 37°C
Description: as §1

[10] = system: Bacillus subtilis (ATCC 6633)
Description: as §1

[11] = system: Klebsiella pneumoniae (ATCC 700603)
Description: as §1

[12] = system: Aspergillus brasiliensis (ATCC 16404); conditions: ATCC 16404, 48 h
Description: as §1

[13] = ATCC 29212, TFA salt, Mueller-Hinton broth, 10^5 cfu/mL, 18 h 37°C, triplicate
[14] = ATCC 29212, TFA salt, triplicate
[15] = ATCC 25922, TFA salt, Mueller-Hinton broth, 10^5 cfu/mL, 18 h 37°C, triplicate
[16] = ATCC 25922, TFA salt, subculture on Mueller-Hinton II Agar, 24 h 37°C, triplicate
[17] = ATCC 25923, TFA salt, Mueller-Hinton broth, 10^5 cfu/mL, 18 h 37°C, triplicate on three days
[18] = ATCC 700603, TFA salt, Mueller-Hinton broth, 10^5 cfu/mL, 18 h 37°C, triplicate
[19] = ATCC 700603, TFA salt, subculture on Mueller-Hinton II Agar, 24 h 37°C, triplicate
[20] = ATCC 9027, TFA salt, Mueller-Hinton broth, 10^5 cfu/mL, 18 h 37°C, triplicate
[21] = ATCC 9027, TFA salt, triplicate

CCCCCCCCCC(=O)N[C@@H](CCCCN)C(N)=O [C10-K-NH2]
1000 µg/mL: MBC Pseudomonas aeruginosa [1] | MIC Escherichia coli ([3]; ATCC 25922, 18 h) | MBC Escherichia coli ([3]; ATCC 25922, 24 h) | MIC Candida albicans [4] | MIC Staphylococcus aureus ([5]; ATCC 25923, 18 h) | MIC Candida tropicalis [7] | MIC Staphylococcus epidermidis ([8]; PCM 2118, 18 h) | MBC Staphylococcus epidermidis ([8]; PCM 2118, 24 h) | MIC Bacillus subtillis ([10]; ATCC 6633, 18 h) | MBC Bacillus subtillis ([10]; ATCC 6633, 24 h) | MIC Klebsiella pneumoniae ([11]; ATCC 700603, 18 h) | MBC Klebsiella pneumoniae ([11]; ATCC 700603, 24 h) | MFC Aspergillus brasiliensis [12]
2000 µg/mL: MFC Candida albicans [4] | MFC Candida tropicalis [7]
>1000 µg/mL: MBC Staphylococcus aureus ([5]; ATCC 25923, TFA salt)
512 µg/mL: MIC Pseudomonas aeruginosa ([6]; ATCC 9027, 18 h) | MIC Aspergillus brasiliensis [12]
>2000 µg/mL: MIC Proteus vulgaris [2] | MBC Proteus vulgaris [2] | MIC Enterococcus fecalis [9, 13] | MBC Enterococcus fecalis [9, 14]

CCCCCCCCCC(=O)N[C@@H](CCCCN)C(=O)NCC(=O)N[C@@H](CCCCN)C(N)=O [C10-KGK-NH2] (Decanoyl-Lys-Gly-Lys-NH2)
512 µg/mL: MIC Candida tropicalis [7] | MIC Staphylococcus epidermidis ([8]; PCM 2118, 18 h) | MBC Staphylococcus epidermidis ([8]; PCM 2118, 24 h) | MIC Bacillus subtillis ([10]; ATCC 6633, 18 h)
>2000 µg/mL: MIC Proteus vulgaris [2] | MBC Proteus vulgaris [2] | MIC Escherichia coli [3, 15] | MBC Escherichia coli [3, 16] | MBC Staphylococcus aureus ([5]; ATCC 25923, TFA salt) | MIC Staphylococcus aureus [5, 17] | MIC Enterococcus fecalis [9, 13] | MBC Enterococcus fecalis [9, 14] | MIC Klebsiella pneumoniae [11, 18] | MBC Klebsiella pneumoniae [11, 19]
2000 µg/mL: MBC Pseudomonas aeruginosa [1] | MIC Pseudomonas aeruginosa ([6]; ATCC 9027, 18 h)
1000 µg/mL: MFC Candida albicans [4] | MIC Candida albicans [4] | MFC Candida tropicalis [7] | MBC Bacillus subtillis ([10]; ATCC 6633, 24 h) | MFC Aspergillus brasiliensis [12] | MIC Aspergillus brasiliensis [12]

CCCCCCCC(=O)N[C@@H](CCCCN)C(=O)N[C@@H](CCCCN)C(=O)N[C@@H](CCCCN)C(N)=O [C8-KKK-NH2]
256 µg/mL: MIC Staphylococcus epidermidis ([8]; PCM 2118, 18 h)
1000 µg/mL: MIC Bacillus subtillis ([10]; ATCC 6633, 18 h) | MBC Bacillus subtillis ([10]; ATCC 6633, 24 h)
512 µg/mL: MBC Staphylococcus epidermidis ([8]; PCM 2118, 24 h)
2000 µg/mL: MFC Candida albicans [4] | MIC Candida albicans [4] | MFC Candida tropicalis [7] | MIC Candida tropicalis [7] | MFC Aspergillus brasiliensis [12] | MIC Aspergillus brasiliensis [12]
>2000 µg/mL: MIC Proteus vulgaris [2] | MBC Proteus vulgaris [2] | MIC Escherichia coli [3, 15] | MBC Escherichia coli [3, 16] | MBC Staphylococcus aureus ([5]; ATCC 25923, TFA salt) | MIC Staphylococcus aureus [5, 17] | MIC Pseudomonas aeruginosa [6, 20] | MBC Pseudomonas aeruginosa [6, 21] | MIC Enterococcus fecalis [9, 13] | MBC Enterococcus fecalis [9, 14] | MIC Klebsiella pneumoniae [11, 18] | MBC Klebsiella pneumoniae [11, 19]

CCCCCCCCCC(=O)N[C@@H](CCCCN)C(=O)NCC(=O)N[C@@H](CCCCN)C(=O)NCC(N)=O [C10-KGKG-NH2] (Decanoyl-KGKG-NH2)
2000 µg/mL: MBC Pseudomonas aeruginosa [1] | MFC Candida albicans [4] | MFC Candida tropicalis [7] | MIC Enterococcus fecalis ([9]; ATCC 29212, 18 h) | MIC Klebsiella pneumoniae ([11]; ATCC 700603, 18 h) | MBC Klebsiella pneumoniae ([11]; ATCC 700603, 24 h) | MFC Aspergillus brasiliensis [12]
512 µg/mL: MIC Candida tropicalis [7] | MIC Staphylococcus epidermidis ([8]; PCM 2118, 18 h) | MBC Staphylococcus epidermidis ([8]; PCM 2118, 24 h) | MIC Bacillus subtillis ([10]; ATCC 6633, 18 h)
>2000 µg/mL: MIC Proteus vulgaris [2] | MBC Proteus vulgaris [2] | MIC Escherichia coli [3, 15] | MBC Escherichia coli [3, 16] | MBC Staphylococcus aureus ([5]; ATCC 25923, TFA salt) | MIC Staphylococcus aureus [5, 17] | MBC Enterococcus fecalis [9, 14]
1000 µg/mL: MIC Candida albicans [4] | MIC Pseudomonas aeruginosa ([6]; ATCC 9027, 18 h) | MBC Bacillus subtillis ([10]; ATCC 6633, 24 h) | MIC Aspergillus brasiliensis [12]

CCCCCCCCCC(=O)N[C@@H](CCCCN)C(=O)N[C@@H](CCCCN)C(=O)N[C@@H](CCCCN)C(N)=O [C10-KKK-NH2]
>2000 µg/mL: MIC Proteus vulgaris [2] | MBC Proteus vulgaris [2] | MIC Escherichia coli [3, 15] | MBC Escherichia coli [3, 16] | MBC Staphylococcus aureus ([5]; ATCC 25923, TFA salt) | MIC Staphylococcus aureus [5, 17] | MIC Pseudomonas aeruginosa [6, 20] | MBC Pseudomonas aeruginosa [6, 21] | MIC Enterococcus fecalis [9, 13] | MBC Enterococcus fecalis [9, 14] | MIC Klebsiella pneumoniae [11, 18] | MBC Klebsiella pneumoniae [11, 19]
2000 µg/mL: MFC Candida albicans [4] | MIC Candida albicans [4] | MFC Candida tropicalis [7] | MIC Candida tropicalis [7] | MFC Aspergillus brasiliensis [12]
1000 µg/mL: MIC Aspergillus brasiliensis [12]
256 µg/mL: MBC Staphylococcus epidermidis ([8]; PCM 2118, 24 h) | MBC Bacillus subtillis ([10]; ATCC 6633, 24 h)
128 µg/mL: MIC Staphylococcus epidermidis ([8]; PCM 2118, 18 h) | MIC Bacillus subtillis ([10]; ATCC 6633, 18 h)

CCCCCCCC(=O)N[C@@H](CCCCN)C(=O)N[C@@H](CCCCN)C(N)=O [C8-KK-NH2]
1000 µg/mL: MFC Candida albicans [4] | MIC Candida albicans [4] | MFC Candida tropicalis [7] | MIC Candida tropicalis [7] | MFC Aspergillus brasiliensis [12] | MIC Aspergillus brasiliensis [12]
>2000 µg/mL: MIC Proteus vulgaris [2] | MBC Proteus vulgaris [2] | MIC Pseudomonas aeruginosa [6, 20] | MBC Pseudomonas aeruginosa [6, 21]
>1000 µg/mL: MIC Escherichia coli [3, 15] | MBC Escherichia coli [3, 16] | MBC Staphylococcus aureus ([5]; ATCC 25923, TFA salt) | MIC Staphylococcus aureus [5, 17] | MIC Staphylococcus epidermidis ([8]; PCM 2118, TFA salt, Mueller-Hinton broth, 10^5 cfu/mL, 18 h 37°C, triplicate) | MBC Staphylococcus epidermidis ([8]; PCM 2118, TFA salt, subculture on Mueller-Hinton II Agar, 24 h 37°C, triplicate) | MIC Enterococcus fecalis [9, 13] | MBC Enterococcus fecalis [9, 14] | MIC Bacillus subtillis ([10]; ATCC 6633, TFA salt, Mueller-Hinton broth, 10^5 cfu/mL, 18 h 37°C, triplicate) | MBC Bacillus subtillis ([10]; ATCC 6633, TFA salt, subculture on Mueller-Hinton II Agar, 24 h 37°C, triplicate) | MIC Klebsiella pneumoniae [11, 18] | MBC Klebsiella pneumoniae [11, 19]
